Series [1] concerns B16-F10. The experiment in a line: Antiproliferative activity against mouse B16-F10 cells incubated for 24 hrs by MTT assay. The format is functional, cell-based. The note with it: B16-F10, 24 h.
The test system of series [2] is A549. The experiment in a line: Anticancer activity against human A549 cells assessed as inhibition of cell proliferation incubated for 48 hrs by MTT assay. Type of series: functional, cell-based. The note with it: A549, 48 h. In general terms: Tetrazolium assays rely on reduction of a dye to a coloured formazan, in cell work by metabolically active cells.
Series [3] concerns MCF7. The series is described as follows: Antiproliferative activity against human MCF7 cells assessed as inhibition of cell proliferation incubated for 20 hrs by MTT assay. Type of series: functional, cell-based. The note with it: MCF7, 20 h.
Series [4] deals with HeLa. The series is described as follows: Antiproliferative activity against human HeLa cells assessed as reduction in cell viability incubated for 24 hrs by MTT assay. Type of series: functional, cell-based.
The subject of series [5] is A549. The series is described as follows: Antiproliferative activity against human A549 cells assessed as inhibition of cell proliferation incubated for 24 hrs by MTT assay. The note with it: A549, 24 h. Type of series: functional, cell-based.
The test system of series [6] is HeLa. The experiment in a line: cells. The note with it: Homo sapiens, 24 h.
In series [7] the test system is MCF7. The series is described as follows: Antiproliferative activity against human MCF7 cells assessed as inhibition of cell growth incubated for 24 hrs in presence of foetal bovine serum by MTT assay. Type of series: functional, cell-based. The note with it: MCF7, 24 h.
A further series deals with L02. The experiment in a line: Antiproliferative activity against human L02 cells assessed as inhibition of cell proliferation incubated for 20 hrs by MTT assay. The format is functional, cell-based. The note with it: L02, 20 h.
The nature of series [8]: Cytotoxicity against human MCF-10A cells assessed as inhibition of cell proliferation incubated for 24 hrs by CCK-8 assay. The format is toxicity, cell-based.
For another series, the system named is SCC-4. The series is described as follows: Antiproliferative activity against human SCC-4 cells assessed as inhibition of cell proliferation incubated for 24 hrs by MTT assay. Type of series: functional, cell-based. The note with it: SCC-4, 24 h.
For series [9], the system named is MCF7. The experiment in a line: Antiproliferative activity against human MCF7 cells assessed as inhibition of cell proliferation incubated for 24 hrs by MTT assay. Type of series: functional, cell-based. The note with it: MCF7, 24 h.
Series [10] in a line: Anticancer activity against human A875 cells assessed as inhibition of cell growth incubated for 24 hrs by MTT assay. Type of series: functional, cell-based. The note with it: A875, 24 h.
Series [11] is described as follows: Cytotoxicity against human skin fibroblast cells assessed as reduction in cell viability incubated for 72 hrs by MTT assay. Type of series: toxicity, cell-based.
Series [12] concerns B16-F10. The experiment in a line: Anticancer activity against mouse B16-F10 cells assessed as inhibition of cell proliferation incubated for 48 hrs by MTT assay. Type of series: functional, cell-based. The note with it: B16-F10, 48 h.
In series [13] the test system is A549. The experiment in a line: Antiproliferative activity against human A549 cells assessed as inhibition of cell growth incubated for 24 hrs by MTT assay. Type of series: functional, cell-based. The note with it: A549, 24 h.
Series [14] deals with HeLa. The experiment in a line: Antiproliferative activity against human HeLa cells assessed as inhibition of cell growth incubated for 24 hrs by MTT assay. Type of series: functional, cell-based.
Series [15] is described as follows: Antitubulin activity against bovine brain tubulin polymerization preincubated with compound followed by GTP addition by turbidimetry-based spectrophotometric method. On the set-up: species or system Bos taurus.

Each structure is given as a SMILES string.

Usually IC50 stands for the midpoint of a concentration-inhibition curve. Take `CC(C)=CC[C@@H](O)C1=CC(=O)c2c(O)ccc(O)c2C1=O` [SHIKONIN]: the IC50 in the series on B16-F10 [1] amounted to 17.9 µM; in the series on A549 [2] it was 5.06 µM; with MCF7 [3] it was 1.03 µM; in the series with HeLa [4] it was 2.82 µM; with A549 [5], 3.13 µM; with HeLa [6], 4.8 µM. Moreover, the concentration for half-maximal inhibition (IC50) stood at 4.57 µM in the series with MCF7 [7]; 65.3 µM in the series on L02; 10.1 µM in the series on SCC-4; 4.99 µM with MCF7 [9]; 0.46 µM in series [10]; 3.72 µM with B16-F10 [12]. In addition, the IC50 with A549 [13] is 10.4 µM; in the series on HeLa [14], 6.5 µM; in series [15], 16.8 µM. Besides, the IC50 at 24 h in [8] stood at 20.9 µM. In addition, the IC50 at 72 h in series [11] was found to be 1.2 µM.
